{"source": "patent US20210387949A1", "about": "“NEW SELECTIVE MODULATORS OF INSECT NICOTINIC ACETYLCHOLINE RECEPTORS” (UNIVERSITE DE NANTES, priority 2018, published 2021)", "key": {"[1]": {"system": "Honey bees Apis mellifera", "conditions": "literature values (Iwasa 2004; Stark 1995); cited from earlier work"}, "honeybee Apis mellifera": {"system": "honeybee Apis mellifera", "experiment": "Oral toxicity against honeybee", "assay_type": "in vivo", "conditions": "for % mortality 24 h / % mortality 48 h: oral, DMSO 1%; for Toxicity for bees: higher concentrations (150 ng/bee), in words", "protocol": "Honeybees were kept from hives located at the University of Orleans and transferred to the laboratory incubators for experiments (30±1.5° C.; 12/12 h 0/N). They were placed in six different cages, 20 bees per cage, with 40% sucrose solution (control group) or tested compounds.\nAll tests were carried out using adult worker honeybees, Apis mellifera L (Hymenoptera: Apidae) taken from two queen colonies. These colonies were disease-free and had received no chemical treatments (Eg. Varroacide). For oral toxicity tests, adult worker bees were collected from the hive combs (avoiding the brood nest area) or from the flight board.\nStock solutions of compounds were dissolved in dimethyl sulfoxide (DMSO) to obtain 500 ng/μL and stocked at −20° C. These samples were then diluted in sucrose solution (40%; w/v), for final experiments. […] Solutions of the test doses were stirred immediately prior to use and were visually homogenous when proposed to bees. Bee allocation to the treatment groups was made impartially. Before being used for the test, bees were subjected to a starvation period of between 2 h and 3 h under test conditions (For review, see Nauen, R.; Ebbinghaus-Kintscher, U.; Schmuck, R., Toxicity and nicotinic acetylcholine receptor interaction of imidacloprid and its metabolites in Apis mellifera (Hymenoptera: Apidae). Pest Management Science 2001, 57, (7), 577-586).\nSix batches of bees (20 bees per batch) were subjected to different doses of the test compound (nominal doses between 50 ng/bee and […]). Doses were determined according to the lethal dose of neonicotinoid insecticides inducing bee toxic effects (Table 3). Controls received sucrose solution containing 0.25% DMSO. The glass test feeders containing any unconsumed portions of the doses were removed and after each experiment a fresh sucrose solution was supplied in feeders within the cages. For each concentration three replicates were made (180 bees/concentration). Mortality was measured at 24 h and 48 h after treatment."}, "[2]": {"system": "cercal nerve giant interneuron synapses within the cockroach sixth abdominal ganglion (A6)", "experiment": "Mannitol-gap recordings, neurotoxic effect on insect cholinergic synaptic transmission", "assay_type": "cell-based", "conditions": "for EC50: read-out: EC50 of depolarization; for Depolarization of the sixth abdominal ganglion: in words; for Reversal of synaptic depolarization after wash-out: effect also observed 2 h after application", "protocol": "Neurotoxic effect was studied using mannitol-gap recordings. Experiments were performed on the cercal nerve giant interneuron synapses located within the cockroach sixth abdominal ganglion (A6) using the mannitol-gap method pioneered by Callec (Callec, J. J.; Sattelle, D. B., A simple technique for monitoring the synaptic actions of pharmacological agents. J Exp Biol 1973, 59, (3), 725-38; and Callec, J. J.; Sattelle, D. B.; Hue, B.; Pelhate, M., Central synaptic actions of pharmacological agents in insects: oil-gap and mannitol-gap studies. In Neurotox 79, Sherwood, M., Ed. Plenum Press: New York, 1980; pp 93-100).\nElectrical events were recorded using external electrodes. A non-electrolyte medium (mannitol) was interposed between the recording sites (Callec, J. J.; Sattelle, D. B.; Hue, B.; Pelhate, M., Central synaptic actions of pharmacological agents in insects: oil-gap and mannitol-gap studies. In Neurotox 79, Sherwood, M., Ed. Plenum Press: New York, 1980; pp 93-100). The main advantages of this method were to preserve the recordings of the unitary or evoked excitatory postsynaptic potentials (EPSP) and the postsynaptic polarization. Consequently, monitoring the variations of EPSP amplitude and/or polarization induced by drug application enables dose-response curves to be recorded. Moreover, this set-up allows long-term experiments to be performed and test solutions can be readily applied without any of the technical problems associated with intracellular recording.\nA6 was carefully desheathed to facilitate penetration of bath-applied drugs. The recording electrodes were connected to the input of high-impedance amplifier, whose outputs were passed to a numeric oscilloscope (Hameg, Germany) and a chart recorder (Kipp and Zonen, B D 111, Holland). Variation of postsynaptic polarization was monitored on a chart recorder and the cEPSPs were evoked by electrical stimulations of the ipsilateral cercal nerve XI using a dual pulse stimulator (Campden 915, USA). TMX was applied during 3 min in the same conditions as previously published (Buckingham, S.; Lapied, B.; Corronc, H.; Sattelle, F., Imidacloprid actions on insect neuronal acetylcholine receptors. J Exp Biol 1997, 200, (Pt 21), 2685-92; and Thany, S. H., Agonist actions of clothianidin on synaptic and extrasynaptic nicotinic acetylcholine receptors expressed on cockroach sixth abdominal ganglion. Neurotoxicology 2009, 30, (6), 1045-52), with a micropump fast perfusion (Harvard Apparatus) that produced a constant solution exchange (500 μL/min). All muscarinic and nicotinic antagonists were bath-applied for at least 20 min before a single application of TMX. Recordings were made at room temperature.\nTo compare the depolarizations, the peak amplitudes were normalized (V/Vmax). The dose-response curve was derived from the fitted curve following the equation:\ny=Vmin+(Vmax−Vmin)/(1+10^(log EC^50^−X)H)\nwhere Y is the normalized response, Vmax and Vmin are the maximum and minimum responses, H is the Hill coefficient, EC50 is the concentration giving half the maximum response and X is the logarithm of the compound concentration."}, "[3]": {"conditions": "bath application, dose-response curve of sixth abdominal ganglion depolarization"}}, "note": "Read-outs that look alike come from different tables or passages of the source."}
{"smiles": "CN/C(=N\\[N+](=O)[O-])NCc1cnc(Cl)s1", "note": "[Clothianidin]", "values": [{"measurement": "LD50", "setting": "[1]", "value": "21.8 ng/bee (Iwasa 2004)"}]}
{"smiles": "Cc1ccc(S(=O)(=O)N2CCCC2)cc1", "note": "[Compound 3aa, 1-tosylpyrrolidine]", "values": [{"measurement": "melting point", "value": 129, "unit": "°C"}]}
{"smiles": "Cc1ccc(S(=O)(=O)N2CCCC2C#N)cc1", "note": "(centres unmarked) [Compound 3ab, 1-tosylpyrrolidine-2-carbonitrile]", "values": [{"measurement": "melting point", "value": 102, "unit": "°C"}]}
{"smiles": "Cc1ccc(S(=O)(=O)N2CCC[C@H]2C#N)cc1", "note": "[Compound 3ac, (S)-1-tosylpyrrolidine-2-carbonitrile]", "values": [{"measurement": "melting point", "value": 102, "unit": "°C"}]}
{"smiles": "O=S(=O)(c1ccc(Cl)cc1)N1CCCC1", "note": "[Compound 3ba, 1-((4-chlorophenyl)sulfonyl) pyrrolidine]", "values": [{"measurement": "melting point", "value": 106, "unit": "°C"}]}
{"smiles": "N#CC1CCCN1S(=O)(=O)c1ccc(Cl)cc1", "note": "(centres unmarked) [Compound 3bb, 1-((4-chlorophenyl)sulfonyl) pyrrolidine-2-carbonitrile]", "values": [{"measurement": "melting point", "value": 115, "unit": "°C"}]}
{"smiles": "N#C[C@@H]1CCCN1S(=O)(=O)c1ccc(Cl)cc1", "note": "[Compound 3bc, (S)-1-((4-chlorophenyl)sulfonyl) pyrrolidine-2-carbonitrile]", "values": [{"measurement": "melting point", "value": 115, "unit": "°C"}]}
{"smiles": "O=S(=O)(c1ccc(Cl)nc1)N1CCCC1", "note": "[Compound 3da, 2-chloro-5-(pyrrolidin-1-ylsulfonyl)pyridine]", "values": [{"measurement": "melting point", "value": 134, "unit": "°C"}]}
{"smiles": "N#C[C@@H]1CCCN1S(=O)(=O)c1ccc(Cl)nc1", "note": "[Compound 3i, (S)-1-((6-chloropyridin-3-yl)sulfonyl)pyrrolidine-2-carbonitrile]", "values": [{"measurement": "% mortality 24 h", "setting": "honeybee Apis mellifera; 50 ng/bee", "value": 3.3, "unit": "%"}, {"measurement": "% mortality 48 h", "setting": "honeybee Apis mellifera; 50 ng/bee", "value": 10.0, "unit": "%"}, {"measurement": "% mortality 24 h", "setting": "honeybee Apis mellifera; 150 ng/bee", "value": 0, "unit": "%"}, {"measurement": "% mortality 48 h", "setting": "honeybee Apis mellifera; 150 ng/bee", "value": 0, "unit": "%"}, {"measurement": "EC50", "setting": "[2]; [3]", "value": 19, "unit": "µM"}, {"measurement": "Depolarization of the sixth abdominal ganglion", "setting": "[2]; bath application", "value": "strong depolarization"}, {"measurement": "Reversal of synaptic depolarization after wash-out", "setting": "[2]", "value": "not reversed after wash-out"}]}
{"smiles": "COc1ccc(S(=O)(=O)N2CCCC2)cn1", "note": "[Compound 3ii, 2-methoxy-5-(pyrrolidin-1-ylsulfonyl)pyridine]", "values": [{"measurement": "% mortality 24 h", "setting": "honeybee Apis mellifera; 50 ng/bee", "value": 0, "unit": "%"}, {"measurement": "% mortality 48 h", "setting": "honeybee Apis mellifera; 50 ng/bee", "value": 3.3, "unit": "%"}, {"measurement": "% mortality 24 h", "setting": "honeybee Apis mellifera; 150 ng/bee", "value": 0, "unit": "%"}, {"measurement": "% mortality 48 h", "setting": "honeybee Apis mellifera; 150 ng/bee", "value": 1.2, "unit": "%"}, {"measurement": "Toxicity for bees", "setting": "honeybee Apis mellifera", "value": "not toxic for bees"}, {"measurement": "EC50", "setting": "[2]; [3]", "value": 8.02, "unit": "µM"}, {"measurement": "Depolarization of the sixth abdominal ganglion", "setting": "[2]; bath application", "value": "strong depolarization"}, {"measurement": "Reversal of synaptic depolarization after wash-out", "setting": "[2]", "value": "not reversed after wash-out"}]}
{"smiles": "COc1ccc(S(=O)(=O)N2CCCC2C#N)cn1", "note": "(centres unmarked) [Compound 3iii, 1-((6-methoxypyridin-3-yl)sulfonyl)pyrrolidine-2-carbonitrile]", "values": [{"measurement": "% mortality 24 h", "setting": "honeybee Apis mellifera; 50 ng/bee", "value": 3.3, "unit": "%"}, {"measurement": "% mortality 48 h", "setting": "honeybee Apis mellifera; 50 ng/bee", "value": 5.0, "unit": "%"}, {"measurement": "% mortality 24 h", "setting": "honeybee Apis mellifera; 150 ng/bee", "value": 2.5, "unit": "%"}, {"measurement": "% mortality 48 h", "setting": "honeybee Apis mellifera; 150 ng/bee", "value": 3.7, "unit": "%"}, {"measurement": "EC50", "setting": "[2]; [3]", "value": 4.25, "unit": "µM"}, {"measurement": "Depolarization of the sixth abdominal ganglion", "setting": "[2]; bath application", "value": "strong depolarization"}, {"measurement": "Reversal of synaptic depolarization after wash-out", "setting": "[2]", "value": "not reversed after wash-out"}]}
{"smiles": "Cc1ccc(S(=O)(=O)N2CCC[C@H]2C#N)cn1", "note": "[Compound 3iv, (S)-1-((6-methylpyridin-3-yl)sulfonyl)pyrrolidine-2-carbonitrile]", "values": [{"measurement": "% mortality 24 h", "setting": "honeybee Apis mellifera; 50 ng/bee", "value": 0, "unit": "%"}, {"measurement": "% mortality 48 h", "setting": "honeybee Apis mellifera; 50 ng/bee", "value": 0, "unit": "%"}, {"measurement": "% mortality 24 h", "setting": "honeybee Apis mellifera; 150 ng/bee", "value": 0, "unit": "%"}, {"measurement": "% mortality 48 h", "setting": "honeybee Apis mellifera; 150 ng/bee", "value": 0, "unit": "%"}, {"measurement": "Toxicity for bees", "setting": "honeybee Apis mellifera", "value": "not toxic for bees"}, {"measurement": "Depolarization of the sixth abdominal ganglion", "setting": "[2]; bath application", "value": "strong depolarization"}, {"measurement": "Reversal of synaptic depolarization after wash-out", "setting": "[2]", "value": "not reversed after wash-out"}]}
{"smiles": "CN/C(=N/CC1CCOC1)N[N+](=O)[O-]", "note": "(centres unmarked) [Dinotefuran]", "values": [{"measurement": "LD50", "setting": "[1]", "value": "75 ng/bee (Iwasa 2004)"}]}
{"smiles": "O=[N+]([O-])NC1=NCCN1Cc1ccc(Cl)nc1", "note": "[Imidacloprid, reference compound]", "values": [{"measurement": "EC50", "setting": "[2]", "value": "~15", "unit": "µM"}]}
{"smiles": "CCN(Cc1ccc(Cl)nc1)/C(=C/[N+](=O)[O-])NC", "note": "[Nitenpyram]", "values": [{"measurement": "LD50", "setting": "[1]", "value": 138, "unit": "ng/bee"}]}
{"smiles": "CN1COCN(Cc2cnc(Cl)s2)/C1=N\\[N+](=O)[O-]", "note": "[Thiamethoxam]", "values": [{"measurement": "LD50", "setting": "[1]", "value": "29.9 ng/bee (Iwasa 2004)"}]}
